For this test, the target named is T1, hMAGL (Homo sapiens, UniProt Q99685).
T1 sequence (Q99685 1-303): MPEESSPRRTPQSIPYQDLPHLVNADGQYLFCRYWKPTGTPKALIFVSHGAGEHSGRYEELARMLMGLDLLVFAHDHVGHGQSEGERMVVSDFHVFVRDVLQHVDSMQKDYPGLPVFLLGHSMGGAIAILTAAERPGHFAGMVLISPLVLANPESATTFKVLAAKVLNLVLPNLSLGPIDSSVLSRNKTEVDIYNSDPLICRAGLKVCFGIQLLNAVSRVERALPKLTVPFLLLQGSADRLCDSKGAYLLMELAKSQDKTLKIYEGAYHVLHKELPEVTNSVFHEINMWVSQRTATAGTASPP
As to the kind of experiment: 2-AG assay: MAGL inhibition, hydrolysis of 2-arachidonoylglycerol to arachidonic acid followed by mass spectrometry. The format is biochemical. The gist of the method:
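Read-out is LC-MS/MS of arachidonic acid released from 2-arachidonoylglycerol (8 μM final), normalised to d8-arachidonic acid internal standard after acetonitrile quench. Enzyme […] and compound were pre-mixed 15 min, then reacted 30 min, both at RT, in Tris/EDTA buffer with 0.01% Tween-20 and 2.5% DMSO.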
The term IC50 denotes the concentration that inhibits the measured activity by half. The low end stands for greater potency in that assay, the high end for weaker potency in that assay. For `O=C(N1CC2(CC(Cn3cc(C(F)(F)F)nn3)C2)C1)N1CC2(CC(c3cc(C4CC4)n[nH]3)C2)C1` [Example 103, [6-(3-cyclopropyl-1H-pyrazol-5-yl)-2-azaspiro[3.3]heptan-2-yl]-[6-[[4-(trifluoromethyl)triazol-1-yl]methyl]-2-azaspiro[3.3]heptan-2-yl]methanone], the IC50 stood at 1.63 nM.

Consider `O=C(N1CC2(CC(Cn3cc(C(F)(F)F)nn3)C2)C1)N1CC2(CC(n3cnc(C4CC4)n3)C2)C1` [Example 104, [6-(3-cyclopropyl-1,2,4-triazol-1-yl)-2-azaspiro[3.3]heptan-2-yl]-[6-[[4-(trifluoromethyl)triazol-1-yl]methyl]-2-azaspiro[3.3]heptan-2-yl]methanone], for which the concentration for half-maximal inhibition (IC50) turned out to be 1.45 nM.

In turn, `O=C(N1CC2(CC(Cc3noc(C(F)(F)F)n3)C2)C1)N1CC2(CC(n3cnc(C4(O)CC4)n3)C2)C1` [Example 105] returned a half-inhibitory concentration (IC50) of 14.1 nM.

Turning to `O=C(N1CC2(CC(Cc3nc(C(F)(F)F)cs3)C2)C1)N1CC2(CC(n3cnc(C4(O)CC4)n3)C2)C1` [Example 106, [6-[3-(1-hydroxycyclopropyl)-1,2,4-triazol-1-yl]-2-azaspiro[3.3]heptan-2-yl]-[6-[[4-(trifluoromethyl)thiazol-2-yl]methyl]-2-azaspiro[3.3]heptan-2-yl]methanone], it took 8.94 nM to reach half-maximal inhibition (IC50).

`O=C(N1CC2(CC(n3cnc(C(F)(F)F)n3)C2)C1)N1CC2(CN(Cc3cn(CC(F)(F)F)nn3)C2)C1` [Example 107, [6-[[1-(2,2,2-trifluoroethyl)triazol-4-yl]methyl]-2,6-diazaspiro[3.3]heptan-2-yl]-[6-[3-(trifluoromethyl)-1,2,4-triazol-1-yl]-2-azaspiro[3.3]heptan-2-yl]methanone] displayed a half-inhibitory concentration (IC50) of 2670 nM.

The compound `O=C(N1CC2(CC(n3cnc(C4CC4)n3)C2)C1)N1CC2(CN(Cc3cn(CC(F)(F)F)nn3)C2)C1` [Example 108, [6-(3-cyclopropyl-1,2,4-triazol-1-yl)-2-azaspiro[3.3]heptan-2-yl]-[6-[[1-(2,2,2-trifluoroethyl)triazol-4-yl]methyl]-2,6-diazaspiro[3.3]heptan-2-yl]methanone] had an IC50 of 735 nM.

`O=C(N1CC2(CC(n3cnc(C(F)(F)F)n3)C2)C1)N1CC2(CN(Cc3cnn(CC(F)(F)F)c3)C2)C1` [Example 109, [6-[[1-(2,2,2-trifluoroethyl)pyrazol-4-yl]methyl]-2,6-diazaspiro[3.3]heptan-2-yl]-[6-[3-(trifluoromethyl)-1,2,4-triazol-1-yl]-2-azaspiro[3.3]heptan-2-yl]methanone] came in with a 50% inhibitory concentration (IC50) of 1380 nM.

Compound `O=C(N1CC2(CC(n3cnc(C4CC4)n3)C2)C1)N1CC2(CN(Cc3cnn(CC(F)(F)F)c3)C2)C1` [Example 110, [6-(3-cyclopropyl-1,2,4-triazol-1-yl)-2-azaspiro[3.3]heptan-2-yl]-[6-[[1-(2,2,2-trifluoroethyl)pyrazol-4-yl]methyl]-2,6-diazaspiro[3.3]heptan-2-yl]methanone] gave an IC50 of 328 nM.

As for `Cc1nn(CC(F)(F)F)cc1CN1CC2(C1)CN(C(=O)N1CC3(CC(n4cnc(C5(O)CC5)n4)C3)C1)C2` [Example 111, [6-[3-(1-hydroxycyclopropyl)-1,2,4-triazol-1-yl]-2-azaspiro[3.3]heptan-2-yl]-[6-[[3-methyl-1-(2,2,2-trifluoroethyl)pyrazol-4-yl]methyl]-2,6-diazaspiro[3.3]heptan-2-yl]methanone], the IC50 was 3900 nM.

Regarding `Cc1nn(CC(F)(F)F)cc1CN1CC2(C1)CN(C(=O)N1CC3(CC(n4cnc(C(F)(F)F)n4)C3)C1)C2` [Example 112, [6-[[3-methyl-1-(2,2,2-trifluoroethyl)pyrazol-4-yl]methyl]-2,6-diazaspiro[3.3]heptan-2-yl]-[6-[3-(trifluoromethyl)-1,2,4-triazol-1-yl]-2-azaspiro[3.3]heptan-2-yl]methanone], the IC50 was 640 nM.

As to `Cc1nn(CC(F)(F)F)cc1CN1CC2(C1)CN(C(=O)N1CC3(CC(n4cnc(C5CC5)n4)C3)C1)C2` [Example 113, [6-(3-cyclopropyl-1,2,4-triazol-1-yl)-2-azaspiro[3.3]heptan-2-yl]-[6-[[3-methyl-1-(2,2,2-trifluoroethyl)pyrazol-4-yl]methyl]-2,6-diazaspiro[3.3]heptan-2-yl]methanone], the IC50 came out at 133 nM.

In turn, `Cc1c(CN2CC3(C2)CN(C(=O)N2CC4(CC(n5cnc(C(F)(F)F)n5)C4)C2)C3)cnn1CC(F)(F)F` [Example 114, [6-[[5-methyl-1-(2,2,2-trifluoroethyl)pyrazol-4-yl]methyl]-2,6-diazaspiro[3.3]heptan-2-yl]-[6-[3-(trifluoromethyl)-1,2,4-triazol-1-yl]-2-azaspiro[3.3]heptan-2-yl]methanone] showed an IC50 of 311 nM. This IC50 is about 2.3-fold higher than that of the compound before.

`Cc1c(CN2CC3(C2)CN(C(=O)N2CC4(CC(n5cnc(C6CC6)n5)C4)C2)C3)cnn1CC(F)(F)F` [Example 115, [6-(3-cyclopropyl-1,2,4-triazol-1-yl)-2-azaspiro[3.3]heptan-2-yl]-[6-[[5-methyl-1-(2,2,2-trifluoroethyl)pyrazol-4-yl]methyl]-2,6-diazaspiro[3.3]heptan-2-yl]methanone] yielded a concentration for half-maximal inhibition (IC50) of 38.2 nM.

Regarding `O=C(N1CC2(CC(n3cnc(C(F)(F)F)n3)C2)C1)N1CC2(CN(Cc3ccn(C(F)(F)F)n3)C2)C1` [Example 116, [6-[[1-(trifluoromethyl)pyrazol-3-yl]methyl]-2,6-diazaspiro[3.3]heptan-2-yl]-[6-[3-(trifluoromethyl)-1,2,4-triazol-1-yl]-2-azaspiro[3.3]heptan-2-yl]methanone], the IC50 worked out at 161 nM.

Regarding `O=C(N1CC2(CC(n3cnc(C4CC4)n3)C2)C1)N1CC2(CN(Cc3ccn(C(F)(F)F)n3)C2)C1` [Example 117, [6-(3-cyclopropyl-1,2,4-triazol-1-yl)-2-azaspiro[3.3]heptan-2-yl]-[6-[[1-(trifluoromethyl)pyrazol-3-yl]methyl]-2,6-diazaspiro[3.3]heptan-2-yl]methanone], the concentration for half-maximal inhibition (IC50) was 16 nM.

Turning to `O=C(N1CC2(CC(Cc3cn[nH]c3C(F)(F)F)C2)C1)N1CC2(CC(n3cnc(C(F)(F)F)n3)C2)C1` [Example 119, [6-[[5-(trifluoromethyl)-1H-pyrazol-4-yl]methyl]-2-azaspiro[3.3]heptan-2-yl]-[6-[3-(trifluoromethyl)-1,2,4-triazol-1-yl]-2-azaspiro[3.3]heptan-2-yl]methanone], the half-inhibitory concentration (IC50) worked out at 0.12 nM.

`O=C(N1CC2(CC(Cc3cn(CC(F)(F)F)nc3C(F)(F)F)C2)C1)N1CC2(CC(n3cnc(C4(O)CC4)n3)C2)C1` [Example 120, [6-[3-(1-hydroxycyclopropyl)-1,2,4-triazol-1-yl]-2-azaspiro[3.3]heptan-2-yl]-[6-[[1-(2,2,2-trifluoroethyl)-3-(trifluoromethyl)pyrazol-4-yl]methyl]-2-azaspiro[3.3]heptan-2-yl]methanone] gave a concentration for half-maximal inhibition (IC50) of 0.81 nM. Compared with the last compound, the IC50 is about 6.8-fold higher.

For the compound `O=C(N1CC2(CC(Cc3cn(CC(F)(F)F)nc3C(F)(F)F)C2)C1)N1CC2(CC(n3cnc(C(F)(F)F)n3)C2)C1` [Example 121, [6-[[1-(2,2,2-trifluoroethyl)-3-(trifluoromethyl)pyrazol-4-yl]methyl]-2-azaspiro[3.3]heptan-2-yl]-[6-[3-(trifluoromethyl)-1,2,4-triazol-1-yl]-2-azaspiro[3.3]heptan-2-yl]methanone], the IC50 was 0.35 nM.

`O=C(N1CC2(CC(Cc3cn(CC(F)(F)F)nc3C(F)(F)F)C2)C1)N1CC2(CC(n3cnc(C4CC4)n3)C2)C1` [Example 122] registered an IC50 of 0.08 nM.

`O=C(N1CC2(CC(Cc3cc(C4CC4)n[nH]3)C2)C1)N1CC2(CC(n3cnc(C(F)(F)F)n3)C2)C1` [Example 123, [6-[(3-cyclopropyl-1H-pyrazol-5-yl)methyl]-2-azaspiro[3.3]heptan-2-yl]-[6-[3-(trifluoromethyl)-1,2,4-triazol-1-yl]-2-azaspiro[3.3]heptan-2-yl]methanone] had an IC50 of 0.34 nM.

In the case of `O=C(N1CC2(CC(Cc3cc(C4CC4)n[nH]3)C2)C1)N1CC2(CC(n3cnc(C4(O)CC4)n3)C2)C1` [Example 125, [6-[(3-cyclopropyl-1H-pyrazol-5-yl)methyl]-2-azaspiro[3.3]heptan-2-yl]-[6-[3-(1-hydroxycyclopropyl)-1,2,4-triazol-1-yl]-2-azaspiro[3.3]heptan-2-yl]methanone], the IC50 stood at 2.25 nM.

In turn, `O=C(N1CC2(CC(Cn3cnc(C(F)(F)F)n3)C2)C1)N1CC2(CC(c3cc(C4CC4)n[nH]3)C2)C1` [Example 126, [6-(3-cyclopropyl-1H-pyrazol-5-yl)-2-azaspiro[3.3]heptan-2-yl]-[6-[[3-(trifluoromethyl)-1,2,4-triazol-1-yl]methyl]-2-azaspiro[3.3]heptan-2-yl]methanone] yielded an IC50 of 0.78 nM.

Turning to `O=C(N1CC2(CC(Cn3cnc(C(F)(F)F)n3)C2)C1)N1CC2(CC(n3cnc(C4CC4)n3)C2)C1` [Example 127, [6-(3-cyclopropyl-1,2,4-triazol-1-yl)-2-azaspiro[3.3]heptan-2-yl]-[6-[[3-(trifluoromethyl)-1,2,4-triazol-1-yl]methyl]-2-azaspiro[3.3]heptan-2-yl]methanone], the IC50 amounted to 1.06 nM.

For the compound `O=C(N1CC2(CC(Cn3cnc(C(F)(F)F)n3)C2)C1)N1CC2(CC(n3cnc(C4(O)CC4)n3)C2)C1` [Example 128, [6-[3-(1-hydroxycyclopropyl)-1,2,4-triazol-1-yl]-2-azaspiro[3.3]heptan-2-yl]-[6-[[3-(trifluoromethyl)-1,2,4-triazol-1-yl]methyl]-2-azaspiro[3.3]heptan-2-yl]methanone], the concentration for half-maximal inhibition (IC50) turned out to be 9.98 nM. This IC50 lies about 9.4-fold higher than the previous one.

(Values after patent US20260374756A1, “HETEROCYCLIC COMPOUNDS AS INHIBITORS OF MONOACYLGLYCEROL LIPASE (MAGL)” (Hoffmann-La Roche Inc., priority 2022, published 2026).)
